Columns and labels:
Settings in all cases: 72 h
HepG2 [1] = assay: drug sensitivity score (DSS) for viability; higher = more toxic; extreme values may be limits of the assay
Caco-2 [2] = assay: as above
U2OS [3] = assay: as above
Vero E6 [4] = assay: as above
Calu-3 [5] = assay: as above
HepG2 [6] = assay: cell viability relative to DMSO; higher = less toxic
Caco-2 [7] = assay: as above
U2OS [8] = assay: as above
Vero E6 [9] = assay: as above
Calu-3 [10] = assay: as above
HepG2 [11] = assay: relative viability EC50 (midpoint between 100% and the lowest measured viability); higher = less toxic
Caco-2 [12] = assay: as above
U2OS [13] = assay: as above
Vero E6 [14] = assay: as above
Calu-3 [15] = assay: as above

Compound	drug sensitivity score (HepG2 [1])	drug sensitivity score (Caco-2 [2])	drug sensitivity score (U2OS [3])	drug sensitivity score (Vero E6 [4])	drug sensitivity score (Calu-3 [5])	cell viability (HepG2 [6]; 1 nM) [%]	cell viability (HepG2 [6]; 10 nM) [%]	cell viability (HepG2 [6]; 100 nM) [%]	cell viability (HepG2 [6]; 1000 nM) [%]	cell viability (HepG2 [6]; 10000 nM) [%]	cell viability (Caco-2 [7]; 1 nM) [%]	cell viability (Caco-2 [7]; 10 nM) [%]	cell viability (Caco-2 [7]; 100 nM) [%]	cell viability (Caco-2 [7]; 1000 nM) [%]	cell viability (Caco-2 [7]; 10000 nM) [%]	cell viability (U2OS [8]; 1 nM) [%]	cell viability (U2OS [8]; 10 nM) [%]	cell viability (U2OS [8]; 100 nM) [%]	cell viability (U2OS [8]; 1000 nM) [%]	cell viability (U2OS [8]; 10000 nM) [%]	cell viability (Vero E6 [9]; 1 nM) [%]	cell viability (Vero E6 [9]; 10 nM) [%]	cell viability (Vero E6 [9]; 100 nM) [%]	cell viability (Vero E6 [9]; 1000 nM) [%]	cell viability (Vero E6 [9]; 10000 nM) [%]	cell viability (Calu-3 [10]; 1 nM) [%]	cell viability (Calu-3 [10]; 10 nM) [%]	cell viability (Calu-3 [10]; 100 nM) [%]	cell viability (Calu-3 [10]; 1000 nM) [%]	cell viability (Calu-3 [10]; 10000 nM) [%]	relative viability EC50 (HepG2 [11]) [µM]	relative viability EC50 (Caco-2 [12]) [µM]	relative viability EC50 (U2OS [13]) [µM]	relative viability EC50 (Vero E6 [14]) [µM]	relative viability EC50 (Calu-3 [15]) [µM]
CN1CCC2=C(C1)C(c1ccccc1)c1ccccc12 (stereo not given) [phenindamine]	0	0	0	0	0	97	88.6	98.2	94.3	88.9	97.4	95.1	99.1	102	89	94	100	93.8	98	92.6	98.9	96.3	97.4	99.7	97.2	96.7	107	98.2	106	99.1	> 10	> 10	> 10	> 10	> 10
COc1ccc(C(=O)Nc2c(Cl)cncc2Cl)cc1OC1CCCC1 [piclamilast]	0	0	0	0.8	0	90.4	86	92.7	102	101	96.6	97.3	102	107	98	98.2	95.7	103	98.3	94.8	98.3	95	92.4	91.4	82	97.5	89.4	102	99.9	87.5	> 10	> 10	> 10	> 10	> 10
CN1CCC(=C2c3ccccc3Sc3ccccc32)CC1 [pimethixene]	1.2	0	0	0	0	108	98.9	121	84.7	92.1	100	89.7	96.9	101	102	103	97.8	102	99	95.5	103	101	106	105	98.4	103	105	100	100	101	> 10	> 10	> 10	> 10	> 10

— the supplement of paper PMC13380429
